Reference: patent US11844806B2 (Asamedic AS, priority 2017, dated 2023)

Key:
[1] = Dissolution of ASA on mixing with phosphate salt solution or water, shaken in the two component device; format: physicochemical
Description: (§1) The cap comprising the powder compartment and the cutting element was assembled with the container comprising the solution.
(§2) The cap was then turned down until the seal keeping the powder and the solution separately was broken by the cutting element. […] The device was then shaken until all ASA was dissolved.
(§3) The solution was then shaken until all ASA was dissolved. A light-yellow coloring of the solution was observed.
(§4) After releasing the ASA and sodium carbonate into the water, the solution was shaken until all ASA was dissolved.

[2] = pH of the solution after dissolution of ASA; format: physicochemical; details: for Measured pH of the solutions after dissolution of ASA: 300 mg ASA
Description: as §1, §2
Further aqueous solutions of salts of phosphoric acid were prepared. These phosphoric acid salt solutions were prepared in order to test the dissolution time of ASA at different final pH values i.e. the pH in the final ASA solution that are to be taken by the patient. Thus, the amount (mg) of the salt of phosphoric acid to be used was calculated based on the final pH to be obtained (theoretically pH).
as §3, §4

Time before ASA was dissolved ([1]; 300 mg ASA and 258-263 mg Na2CO3 released together into 15 ml pure water, test device, Example 7 (carbonate comparison)): approx. 120 sec.
Time in which ASA is dissolved in the Na2HPO4 solutions ([1]; 300 mg ASA, 15 ml, pH in the final solution set between approximately 7 to 8 (summary of table 2)): ≤ 25 s
Time in which ASA is dissolved in the Na3PO4.12H2O solution ([1]; 300 mg ASA, 15 ml, pH in the final solution set to approximately 7 (summary of table 3)): ≤ 25 s
Time until all ASA was dissolved ([1]; 300 mg crushed ASA and 1000 mg crushed Na2HPO4 released together into 15 ml pure water, test device, Example 3): ≤ 30 s
Time until all ASA was dissolved ([1]; 304 mg ASA and 610 mg Na3PO4 released at the same time into 15 ml pure water, Example 5): ≤ 30 s
300 mg ASA in 15 ml solution dissolved within 25 seconds ([1]; 422 mg (1.11 · 10^−3 mol) Na3PO4•12H2O in 15 ml, theoretical pH 7.2): yes
300 mg ASA in 15 ml solution dissolved within 25 seconds ([1]; 474 mg (3.34 · 10^−3 mol) Na2HPO4 in 15 ml, theoretical pH 7.2): Yes
300 mg ASA in 15 ml solution dissolved within 25 seconds ([1]; 950 mg (6.67 · 10^−3 mol) Na2HPO4 in 15 ml, theoretical pH 7.7): Yes
300 mg ASA in 15 ml solution dissolved within 25 seconds ([1]; 1730 mg (1.21 · 10^−2 mol) Na2HPO4 in 15 ml, theoretical pH 8.0): Yes
pH of the solutions after dissolution of ASA and the carbonate salt ([2]; 300 mg ASA and 258-263 mg Na2CO3 in 15 ml pure water, Example 7): 9.41-9.43
Measured pH of the solutions after dissolution of ASA ([2]; 422 mg Na3PO4•12H2O in 15 ml, theoretical pH 7.2): 7.6
Measured pH of the solutions after dissolution of ASA ([2]; 474 mg Na2HPO4 in 15 ml, theoretical pH 7.2): 7.0
Measured pH of the solutions after dissolution of ASA ([2]; 1730 mg Na2HPO4 in 15 ml, theoretical pH 8.0): 7.7
pH of the solution after dissolution of ASA and the hydrogen phosphate salt ([2]; 300 mg crushed ASA and 1000 mg crushed Na2HPO4 in 15 ml pure water, Example 3): 7
pH of the solution after dissolution of ASA and the phosphate salt ([2]; 304 mg ASA and 610 mg Na3PO4 in 15 ml pure water, Example 5): 10.72
Compound: CC(=O)Oc1ccccc1C(=O)O [ASA, acetylsalicylic acid]
